Patent US9174951B2, “Glucose transporter inhibitors” (The Ohio State University Research Foundation, priority 2012, dated 2015)

How the values were obtained:
Type in all cases: cell-based
GLUT3 = biological target: T1, GLUT3 (Homo sapiens, UniProt P11169); test: [3H]2-DG uptake into LNCaP cells overexpressing GLUT3; conditions: for inhibition at 5 µM: LNCaP cells transfected with GLUT3, 30 min
T1 construct: GLUT3 ORF cDNA was purchased from Origene Technologies; EGFP (from the pEGFP-N2 vector); host or cells: LNCaP
T1 sequence (P11169 1-496): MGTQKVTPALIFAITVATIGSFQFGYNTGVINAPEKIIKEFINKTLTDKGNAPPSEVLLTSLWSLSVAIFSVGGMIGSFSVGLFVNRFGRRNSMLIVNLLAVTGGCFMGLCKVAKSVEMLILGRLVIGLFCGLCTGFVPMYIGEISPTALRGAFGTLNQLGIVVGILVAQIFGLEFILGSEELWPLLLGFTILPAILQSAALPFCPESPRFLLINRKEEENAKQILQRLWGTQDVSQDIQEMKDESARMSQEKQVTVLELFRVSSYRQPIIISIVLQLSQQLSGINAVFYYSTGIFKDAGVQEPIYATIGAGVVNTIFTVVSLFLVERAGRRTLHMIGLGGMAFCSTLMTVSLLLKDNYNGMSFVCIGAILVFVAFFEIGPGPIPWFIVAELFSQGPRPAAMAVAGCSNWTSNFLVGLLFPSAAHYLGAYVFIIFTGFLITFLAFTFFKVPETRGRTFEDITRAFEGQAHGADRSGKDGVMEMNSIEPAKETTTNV
Text: (§1) As information regarding the expression pattern of individual GLUT members in LNCaP cells was lacking, quantitative real time polymerase chain reaction (qRT-PCR) was used to assess the mRNA levels of the hypoxia-responsive GLUT1 and GLUT3, and three other representative GLUT members, including the class I GLUT2 and GLUT4 and the class II GLUT9. Among these five members, LNCaP cells expressed GLUT1 and, to a much lesser extent, GLUT9, while the mRNA levels of GLUTs2-4 were negligible (FIG. 3B). To examine the isoform specificity of these inhibitors, LNCaP cells were ectopically transfected with plasmids encoding GLUT1, GLUT3, GLUT4, or GLUT9 vis-à-vis the pCMV control vector so that the increased glucose uptake in GLUT-transfected cells relative to pCMV control cells was indicative of the activity of the ectopically expressed GLUT protein.
(§2) Glucose Uptake Assay. LNCaP cells were seeded in six-well plates (3×10^5 cells/well) for 24 h. Cells were washed twice with Krebs-Ringer phosphate buffer (126 mM NaCl, 2.5 mM KCl, 25 mM NaHCO3, 1.2 mM NaH2PO4, 1.2 mM MgCl2, 2.5 mM CaCl2, pH 7.4) and were then treated with individual agents in Krebs-Ringer phosphate buffer. After 1.5 h, glucose uptake was initiated by adding 1 mL Krebs-Ringer buffer containing […] [^3H]2-DG (PerkinElmer Life Science) and […] non-radioactive 2-DG and was terminated by washing with cold PBS. The cells were lysed in […] lysis buffer (10 mM Tris-HCl pH 8.0, 0.1% SDS) and aliquots were taken for measurement of radioactivity using a scintillation counter (Beckman LS6500).
(§3) Plasmid Construction, Transient Transfection and Immunoblotting. The full length GLUT1, GLUT4, and GLUT9 ORF cDNA clones were purchased from Addgene (Cambridge, Mass.) and GLUT3 ORF cDNA was purchased from Origene Technologies (Rockville, Md.). GLUT1, GLUT3, and GLUT9 were subcloned into the HindIII/SalI sites and GLUT4 was subcloned into the EcoRI/SalI sites of pEGFP-N2 expression vector (Clontech, Palo Alto, Calif.). […]

GLUT9 = biological target: T2, GLUT9 (Homo sapiens, UniProt Q9NRM0); test: [3H]2-DG uptake into LNCaP cells overexpressing GLUT9; conditions: for inhibition at 5 µM: LNCaP cells transfected with GLUT9, 30 min
T2 construct: The full length GLUT1, GLUT4, and GLUT9 ORF cDNA clones were purchased from Addgene; EGFP (from the pEGFP-N2 vector); host or cells: LNCaP
T2 sequence (Q9NRM0 1-540): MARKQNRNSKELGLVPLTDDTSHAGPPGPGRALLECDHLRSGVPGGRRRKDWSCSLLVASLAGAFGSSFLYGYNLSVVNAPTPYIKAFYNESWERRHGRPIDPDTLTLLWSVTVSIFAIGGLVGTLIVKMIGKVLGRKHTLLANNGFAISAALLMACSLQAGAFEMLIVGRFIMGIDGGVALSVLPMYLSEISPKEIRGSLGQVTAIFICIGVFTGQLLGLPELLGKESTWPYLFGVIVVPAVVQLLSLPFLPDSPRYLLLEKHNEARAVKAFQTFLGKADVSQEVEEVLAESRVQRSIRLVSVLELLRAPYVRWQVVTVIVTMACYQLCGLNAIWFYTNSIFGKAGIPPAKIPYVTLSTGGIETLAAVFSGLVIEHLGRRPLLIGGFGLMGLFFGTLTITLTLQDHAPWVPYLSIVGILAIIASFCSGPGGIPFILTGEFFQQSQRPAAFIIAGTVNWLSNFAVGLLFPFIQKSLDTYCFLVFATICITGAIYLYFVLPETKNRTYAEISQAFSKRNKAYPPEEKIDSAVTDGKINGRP
Text: as §1, §2, §3

SKBR3 cells = test: MTT cell viability assay, SKBR3; conditions: Homo sapiens, SK-BR-3, 72 h, 10% FBS
Description: Cell Viability Assay. Cell viability was determined using the 3-(4,5-dimethylthiazol-2-yl)-2,5-diphenyltetrazolium bromide (MTT) assay. Cancer cells were seeded at 5000 cells/well and normal cells were seeded at 8000 cells/well in 96-well plates and incubated in 10% FBS-supplemented medium for 24 h. Cells were then treated with individual agents for 72 h. Drug-containing medium was replaced with medium containing MTT (0.5 mg/mL), followed by incubation at 37° C. for 1 h. After removal of medium, the reduced MTT dye in each well was solubilized in 100 μL of DMSO and absorbance at 570 nm was measured.
Compound 30 was evaluated for antiproliferative activity in panels of different human cancer cells lines, including those of prostate, breast and pancreatic cancers. In all experiments, cells were treated with a range of concentrations of Compound 30 in the presence of 10% fetal bovine serum (FBS). Cell viability was then determined after 72 h of treatment using the 3-(4,5-dimethylthiazol-2-yl)-2,5-diphenyltetrazolium bromide (MTT) assay. […] It is noteworthy that despite this high antiproliferative potency, normal human prostate epithelial cells (PrECs) were resistant to the cytotoxic effect of Compound 30 even at 10 μM.

inhibition at 5 µM (GLUT3) [%] | inhibition at 5 µM (GLUT9) [%] | IC50 (GLUT3; LNCaP cells overexpressing GLUT3, read-out: IC50 for GLUT3-mediated [3H]2-DG uptake) [µM] | IC50 (SKBR3 cells) [nM] | IC50 (GLUT9; LNCaP cells overexpressing GLUT9, read-out: IC50 for GLUT9-mediated [3H]2-DG uptake) [µM] | Compound
41 | 26 |  |  |  | CCC(CC)CN1C(=O)S/C(=C\c2ccc(O)c(C(F)(F)F)c2)C1=O [Compound 5]
48 | 34 | ≥ 5 | 1600 | ≥ 5 | CC(CN1C(=O)S/C(=C\c2ccc(O)c(C(F)(F)F)c2)C1=O)(CC(F)(F)F)CC(F)(F)F [Compound 30, 5-(4-Hydroxy-3-trifluoromethyl-benzylidene)-3-[4,4,4-trifluoro-2-methyl-2-(2,2,2-trifluoro-ethyl)-butyl]-thiazolidine-2,4-dione]
